Data published in paper PMC12146557 (iScience, 2025).

Columns and labels:
[1] = biological target: T1, PfUbc13 (Plasmodium falciparum ubiquitin-conjugating enzyme 13) (Plasmodium falciparum, UniProt Q8I3J4); assay: LC-HRMS of tryptic peptides; assay type: biochemical
T1 sequence (Q8I3J4 1-152): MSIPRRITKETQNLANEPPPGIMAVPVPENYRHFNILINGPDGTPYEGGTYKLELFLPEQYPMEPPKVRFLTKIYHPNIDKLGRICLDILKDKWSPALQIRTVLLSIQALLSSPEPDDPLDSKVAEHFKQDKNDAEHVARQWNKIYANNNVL
T1 sequence (Q8I5F9 1-1140 partner): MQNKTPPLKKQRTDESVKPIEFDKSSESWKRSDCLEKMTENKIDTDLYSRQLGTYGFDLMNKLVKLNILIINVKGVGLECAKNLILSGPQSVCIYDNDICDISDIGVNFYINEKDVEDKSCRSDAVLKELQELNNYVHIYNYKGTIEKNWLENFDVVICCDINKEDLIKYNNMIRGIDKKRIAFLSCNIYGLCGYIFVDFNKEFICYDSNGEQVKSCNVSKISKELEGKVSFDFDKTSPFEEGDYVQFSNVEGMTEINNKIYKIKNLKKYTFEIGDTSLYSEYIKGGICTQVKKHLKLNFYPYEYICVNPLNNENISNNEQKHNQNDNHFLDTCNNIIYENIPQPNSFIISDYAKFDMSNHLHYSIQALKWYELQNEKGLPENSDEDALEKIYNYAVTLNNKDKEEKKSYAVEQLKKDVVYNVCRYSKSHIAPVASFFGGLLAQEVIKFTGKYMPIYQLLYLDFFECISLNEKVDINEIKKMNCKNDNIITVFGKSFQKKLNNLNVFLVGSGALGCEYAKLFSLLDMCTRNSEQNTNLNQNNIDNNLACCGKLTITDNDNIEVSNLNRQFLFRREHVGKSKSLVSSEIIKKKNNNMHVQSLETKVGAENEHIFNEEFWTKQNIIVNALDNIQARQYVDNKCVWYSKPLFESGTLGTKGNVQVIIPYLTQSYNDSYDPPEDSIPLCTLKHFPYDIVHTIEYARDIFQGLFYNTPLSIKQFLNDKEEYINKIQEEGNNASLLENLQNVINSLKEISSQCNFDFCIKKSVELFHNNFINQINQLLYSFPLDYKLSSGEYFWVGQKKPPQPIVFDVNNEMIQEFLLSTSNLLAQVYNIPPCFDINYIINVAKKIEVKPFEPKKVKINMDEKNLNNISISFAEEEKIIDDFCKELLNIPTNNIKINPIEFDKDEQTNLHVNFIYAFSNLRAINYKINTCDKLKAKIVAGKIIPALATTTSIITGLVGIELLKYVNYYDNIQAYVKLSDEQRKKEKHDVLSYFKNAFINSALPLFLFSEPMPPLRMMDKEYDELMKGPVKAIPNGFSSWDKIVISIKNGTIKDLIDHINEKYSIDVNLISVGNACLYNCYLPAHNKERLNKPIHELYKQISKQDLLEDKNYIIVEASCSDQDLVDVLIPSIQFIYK

[2] = biological target: T2, HsUbc13 (human Ubc13) (Homo sapiens, UniProt P61088); assay: LC-HRMS of tryptic peptides; assay type: biochemical
T2 sequence (P61088 1-152): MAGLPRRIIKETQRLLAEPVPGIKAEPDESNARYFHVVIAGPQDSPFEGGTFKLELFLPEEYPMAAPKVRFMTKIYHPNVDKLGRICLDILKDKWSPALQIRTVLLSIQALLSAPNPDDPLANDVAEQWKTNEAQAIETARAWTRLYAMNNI

SMILES: Cc1ccc(S(=O)(=O)c2ccc([N+](=O)[O-])o2)cc1 [NSC697923]
- Ki [1]: 360 ± 110 nM
- Ki [2]: 280 ± 70 nM
